Measurements from ChEMBL document CHEMBL2396621, “Design, synthesis and biological evaluation of 2-mercapto-3-phenethylquinazoline bearing anilide fragments as potential antitumor agents: molecular docking study” (2013).

Columns and labels:
Type in all cases: functional
A549 = assay: Cytotoxicity against human A549 cells assessed as growth inhibition at 10 uM after 48 hrs by coulter counter analysis; settings: A549, 48 h, read-out: GI
NCI-H322M = assay: Cytotoxicity against human NCI-H322M cells assessed as growth inhibition at 10 uM after 48 hrs by coulter counter analysis; settings: read-out: GI
OVCAR-4 = assay: Cytotoxicity against human OVCAR4 cells assessed as growth inhibition at 10 uM after 48 hrs by coulter counter analysis; settings: OVCAR-4, 48 h, read-out: GI
A498 = assay: Cytotoxicity against human A498 cells assessed as growth inhibition at 10 uM after 48 hrs by coulter counter analysis; settings: A498, 48 h, read-out: GI
HT-29 = assay: Cytotoxicity against human HT-29 cells assessed as growth inhibition at 10 uM after 48 hrs by coulter counter analysis; settings: HT-29, 48 h, read-out: GI
TK-10 = assay: Cytotoxicity against human TK10 cells assessed as growth inhibition at 10 uM after 48 hrs by coulter counter analysis; settings: TK-10, 48 h, read-out: GI
COLO 205 = assay: Cytotoxicity against human COLO205 cells assessed as growth inhibition at 10 uM after 48 hrs by coulter counter analysis; settings: COLO 205, 48 h, read-out: GI
SF-268 = assay: Cytotoxicity against human SF268 cells assessed as growth inhibition at 10 uM after 48 hrs by coulter counter analysis; settings: SF-268, 48 h, read-out: GI
LOX IMVI = assay: Cytotoxicity against human LOXIMVI cells assessed as growth inhibition at 10 uM after 48 hrs by coulter counter analysis; settings: read-out: GI
MDA-MB-435 = assay: Cytotoxicity against human MDA-MB-435 cells assessed as growth inhibition at 10 uM after 48 hrs by coulter counter analysis; settings: MDA-MB-435, 48 h, read-out: GI
NCI-H522 = assay: Cytotoxicity against human NCI-H522 cells assessed as growth inhibition at 10 uM after 48 hrs by coulter counter analysis; settings: NCI-H522, 48 h, read-out: GI
DU-145 = assay: Cytotoxicity against human DU145 cells assessed as growth inhibition at 10 uM after 48 hrs by coulter counter analysis; settings: DU-145, 48 h, read-out: GI
NCI-H226 = assay: Cytotoxicity against human NCI-H226 cells assessed as growth inhibition at 10 uM after 48 hrs by coulter counter analysis; settings: NCI-H226, 48 h, read-out: GI
[1] = Cytotoxicity against human NCI-ADR-RES cells assessed as growth inhibition at 10 uM after 48 hrs by coulter counter analysis; settings: read-out: GI
SNB-75 = assay: Cytotoxicity against human SNB75 cells assessed as growth inhibition at 10 uM after 48 hrs by coulter counter analysis; settings: SNB-75, 48 h, read-out: GI
KM12 = assay: Cytotoxicity against human KM12 cells assessed as growth inhibition at 10 uM after 48 hrs by coulter counter analysis; settings: KM12, 48 h, read-out: GI
NCI-H460 = assay: Cytotoxicity against human NCI-H460 cells assessed as growth inhibition at 10 uM after 48 hrs by coulter counter analysis; settings: NCI-H460, 48 h, read-out: GI
SF-295 = assay: Cytotoxicity against human SF295 cells assessed as growth inhibition at 10 uM after 48 hrs by coulter counter analysis; settings: SF-295, 48 h, read-out: GI
OVCAR-3 = assay: Cytotoxicity against human OVCAR3 cells assessed as growth inhibition at 10 uM after 48 hrs by coulter counter analysis; settings: OVCAR-3, 48 h, read-out: GI
HCC 2998 = assay: Cytotoxicity against human HCC2998 cells assessed as growth inhibition at 10 uM after 48 hrs by coulter counter analysis; settings: HCC 2998, 48 h, read-out: GI
IGROV-1 = assay: Cytotoxicity against human IGROV1 cells assessed as growth inhibition at 10 uM after 48 hrs by coulter counter analysis; settings: IGROV-1, 48 h, read-out: GI
ACHN = assay: Cytotoxicity against human ACHN cells assessed as growth inhibition at 10 uM after 48 hrs by coulter counter analysis; settings: read-out: GI
SK-MEL-5 = assay: Cytotoxicity against human SK-MEL-5 cells assessed as growth inhibition at 10 uM after 48 hrs by coulter counter analysis; settings: SK-MEL-5, 48 h, read-out: GI
HCT-15 = assay: Cytotoxicity against human HCT15 cells assessed as growth inhibition at 10 uM after 48 hrs by coulter counter analysis; settings: HCT-15, 48 h, read-out: GI
UO-31 = assay: Cytotoxicity against human UO31 cells assessed as growth inhibition at 10 uM after 48 hrs by coulter counter analysis; settings: UO-31, 48 h, read-out: GI
SW-620 = assay: Cytotoxicity against human SW620 cells assessed as growth inhibition at 10 uM after 48 hrs by coulter counter analysis; settings: SW-620, 48 h, read-out: GI
SK-OV-3 = assay: Cytotoxicity against human SKOV3 cells assessed as growth inhibition at 10 uM after 48 hrs by coulter counter analysis; settings: SK-OV-3, 48 h, read-out: GI
MDA-MB-468 = assay: Cytotoxicity against human MDA-MB-468 cells assessed as growth inhibition at 10 uM after 48 hrs by coulter counter analysis; settings: MDA-MB-468, 48 h, read-out: GI
PC-3 = assay: Cytotoxicity against human PC3 cells assessed as growth inhibition at 10 uM after 48 hrs by coulter counter analysis; settings: PC-3, 48 h, read-out: GI
SN12C = assay: Cytotoxicity against human SN12C cells assessed as growth inhibition at 10 uM after 48 hrs by coulter counter analysis; settings: read-out: GI
UACC-257 = assay: Cytotoxicity against human UACC257 cells assessed as growth inhibition at 10 uM after 48 hrs by coulter counter analysis; settings: UACC-257, 48 h, read-out: GI
T47D = assay: Cytotoxicity against human T47D cells assessed as growth inhibition at 10 uM after 48 hrs by coulter counter analysis; settings: read-out: GI
NCI-H23 = assay: Cytotoxicity against human NCI-H23 cells assessed as growth inhibition at 10 uM after 48 hrs by coulter counter analysis; settings: NCI-H23, 48 h, read-out: GI
BT-549 = assay: Cytotoxicity against human BT549 cells assessed as growth inhibition at 10 uM after 48 hrs by coulter counter analysis; settings: BT-549, 48 h, read-out: GI
SF-539 = assay: Cytotoxicity against human SF539 cells assessed as growth inhibition at 10 uM after 48 hrs by coulter counter analysis; settings: SF-539, 48 h, read-out: GI
HOP-62 = assay: Cytotoxicity against human HOP62 cells assessed as growth inhibition at 10 uM after 48 hrs by coulter counter analysis; settings: HOP-62, 48 h, read-out: GI
SNB-19 = assay: Cytotoxicity against human SNB19 cells assessed as growth inhibition at 10 uM after 48 hrs by coulter counter analysis; settings: SNB-19, 48 h, read-out: GI

Compound | inhibition of growth at 10 µM (A549) | inhibition of growth at 10 µM (NCI-H322M) | inhibition of growth at 10 µM (OVCAR-4) | inhibition of growth at 10 µM (A498) | inhibition of growth at 10 µM (HT-29) | inhibition of growth at 10 µM (TK-10) | inhibition of growth at 10 µM (COLO 205) | inhibition of growth at 10 µM (SF-268) | inhibition of growth at 10 µM (LOX IMVI) | inhibition of growth at 10 µM (MDA-MB-435) | inhibition of growth at 10 µM (NCI-H522) | inhibition of growth at 10 µM (DU-145) | inhibition of growth at 10 µM (NCI-H226) | inhibition of growth at 10 µM [1] | inhibition of growth at 10 µM (SNB-75) | inhibition of growth at 10 µM (KM12) | inhibition of growth at 10 µM (NCI-H460) | inhibition of growth at 10 µM (SF-295) | inhibition of growth at 10 µM (OVCAR-3) | inhibition of growth at 10 µM (HCC 2998) | further results
O=C(CSc1nc2ccccc2c(=O)n1CCc1ccccc1)Nc1ccccc1 | 16% | < 10% | < 10% | 11% | < 10% | < 10% | < 10% | < 10% | 11% | < 10% | 10% | < 10% | < 10% | < 10% | 12% | < 10% | < 10% | < 10% | < 10% | < 10% | inhibition of growth at 10 µM (IGROV-1): < 10%; inhibition of growth at 10 µM (ACHN): < 10%; inhibition of growth at 10 µM (SK-MEL-5): 13%; inhibition of growth at 10 µM (HCT-15): < 10%; inhibition of growth at 10 µM (UO-31): < 10%; inhibition of growth at 10 µM (SW-620): < 10%; inhibition of growth at 10 µM (SK-OV-3): 14%; inhibition of growth at 10 µM (MDA-MB-468): 18%; inhibition of growth at 10 µM (PC-3): 10%; inhibition of growth at 10 µM (SN12C): < 10%; inhibition of growth at 10 µM (UACC-257): < 10%; inhibition of growth at 10 µM (T47D): 13%; inhibition of growth at 10 µM (NCI-H23): 11%; inhibition of growth at 10 µM (BT-549): < 10%; inhibition of growth at 10 µM (SF-539): < 10%; inhibition of growth at 10 µM (HOP-62): < 10%; inhibition of growth at 10 µM (SNB-19): < 10%
COc1cc(NC(=O)CSc2nc3ccccc3c(=O)n2CCc2ccccc2)cc(OC)c1OC | 76% | 73% | 47% | > 100% | 85% | > 100% | 71% | 87% | 70% | > 100% | > 100% | 55% | > 100% | 64% | > 100% | 93% | > 100% | 49% | > 100% | 66% | inhibition of growth at 10 µM (IGROV-1): 92%; inhibition of growth at 10 µM (ACHN): > 100%; inhibition of growth at 10 µM (SK-MEL-5): > 100%; inhibition of growth at 10 µM (HCT-15): 11%; inhibition of growth at 10 µM (UO-31): > 100%; inhibition of growth at 10 µM (SW-620): 52%; inhibition of growth at 10 µM (SK-OV-3): > 100%; inhibition of growth at 10 µM (MDA-MB-468): 71%; inhibition of growth at 10 µM (PC-3): 59%; inhibition of growth at 10 µM (SN12C): 75%; inhibition of growth at 10 µM (UACC-257): 61%; inhibition of growth at 10 µM (T47D): > 100%; inhibition of growth at 10 µM (NCI-H23): 74%; inhibition of growth at 10 µM (BT-549): > 100%; inhibition of growth at 10 µM (SF-539): > 100%; inhibition of growth at 10 µM (HOP-62): 91%; inhibition of growth at 10 µM (SNB-19): 73%
O=C(CSc1nc2ccccc2c(=O)n1CCc1ccccc1)Nc1cc(Cl)ccc1C(=O)O | < 10% | < 10% | < 10% | 10% | < 10% | < 10% | < 10% | < 10% | < 10% | < 10% | < 10% | < 10% | < 10% | < 10% | 20% | < 10% | < 10% | < 10% | < 10% | < 10% | inhibition of growth at 10 µM (IGROV-1): < 10%; inhibition of growth at 10 µM (ACHN): < 10%; inhibition of growth at 10 µM (SK-MEL-5): < 10%; inhibition of growth at 10 µM (HCT-15): < 10%; inhibition of growth at 10 µM (UO-31): 18%; inhibition of growth at 10 µM (SW-620): < 10%; inhibition of growth at 10 µM (SK-OV-3): < 10%; inhibition of growth at 10 µM (MDA-MB-468): < 10%; inhibition of growth at 10 µM (PC-3): < 10%; inhibition of growth at 10 µM (SN12C): < 10%; inhibition of growth at 10 µM (UACC-257): < 10%; inhibition of growth at 10 µM (T47D): < 10%; inhibition of growth at 10 µM (NCI-H23): < 10%; inhibition of growth at 10 µM (BT-549): 10%; inhibition of growth at 10 µM (SF-539): < 10%; inhibition of growth at 10 µM (HOP-62): < 10%; inhibition of growth at 10 µM (SNB-19): < 10%
